Results from patent publication US5061691A, “Enkephalin analogs” (Kabushiki Kaisha Vitamin Kenkyuso, priority 1987, dated 1991).
Read-outs that look alike come from different tables or passages of the source. Peptide text beside a SMILES is read from it.

Experiments:
[1] = biological target: T1, mouse vas deferens (MVD) (Mus musculus, UniProt P32300); assay type: cell-based
[2] = biological target: guinea pig ileum (GPI) (Cavia porcellus, UniProt P97266); conditions: value from Shimohigashi et al., Peptide Chemistry 1985 p. 51 (1986); cited from earlier work
Chain of guinea pig ileum (GPI) (P97266 whole entry): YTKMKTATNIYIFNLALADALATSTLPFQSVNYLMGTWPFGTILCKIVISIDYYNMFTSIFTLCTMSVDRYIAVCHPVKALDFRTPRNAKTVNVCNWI

[3] = test system: μ and δ opiate receptors; conditions: Lutz et al., Eur. J. Pharmacol. 111, 257 (1985); cited from earlier work
[4] = biological target: T1, mouse vas deferens (MVD); conditions: cited from earlier work
[5] = i.c.v. or i.v. administration; cited from earlier work

T1 sequence (P32300 whole entry): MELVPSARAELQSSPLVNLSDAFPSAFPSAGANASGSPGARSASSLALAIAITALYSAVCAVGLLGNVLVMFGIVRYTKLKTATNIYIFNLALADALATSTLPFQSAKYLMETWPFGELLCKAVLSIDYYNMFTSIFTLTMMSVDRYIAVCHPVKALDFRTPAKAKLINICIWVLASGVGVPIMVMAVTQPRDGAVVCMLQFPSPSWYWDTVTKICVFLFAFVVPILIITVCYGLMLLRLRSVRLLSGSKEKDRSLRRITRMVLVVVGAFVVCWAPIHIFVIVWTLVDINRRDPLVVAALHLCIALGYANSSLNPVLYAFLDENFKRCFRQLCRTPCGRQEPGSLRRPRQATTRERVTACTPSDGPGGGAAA

For `NC(=O)[C@@H]1CCCN1C(=O)[C@H](Cc1ccccc1)NC(=O)[C@@H]1CCCN1C(=O)[C@@H](N)Cc1ccc(O)cc1` [Morphiceptin, H--Tyr--Pro--Phe--Pro--NH2] (H-YPFP-NH2), the “Activity ratio MVD/GPI” value [1] was 5.7.

In the case of “(H--Tyr--D--Ala--Gly--NH--CH2 --)2 [DTRE2]”, the IC50 [2] is given as 0.44 µM, the “selectivity for μ than for δ in receptor binding assay” value [3] is given as “about 400 fold” and the “opiate activity and selectivity in bioassays (GPI and MVD assays)” value ([4]; GPI and MVD bioassays, Shimohigashi et al. (1986)) is given as “morphine-like activities and greater selectivity for μ than for δ”. For the same molecule, the “Activity ratio MVD/GPI” value ([4]; ratio of IC50, from Shimohigashi et al., Peptide Chemistry 1985 p. 51 (1986)) was 6.1 and the IC50 ([4]; value from Shimohigashi et al., Peptide Chemistry 1985 p. 51 (1986)) was 2.7 µM.

For “β -Endorphin: consists of 31 amino acid residues and is a fragment of β -lipotropin (YGGFMTSEKSQTPLVTLFKNAIIKNAYKKGE; Beta-endorphin; UniProt P01189 237-267, looked up)”, the analgesic activity [5] is given as “marked and long-lived analgesic activity”.
